pEC50: −log10 of the molar value.
Tested on: Friedreich ataxia patient-derived human dermal fibroblasts
Test: Cell viability evaluation test using human dermal fibroblasts derived from a Friedreich ataxia patient (BSO stress)
Type: cell-based
Conditions: Fibroblast, rescue of cell viability, 30 μM BSO, 48 hours, Calcein-AM fluorescence, no BSO = 100%, BSO only = 0%
Experimental: Cell Viability Evaluation Test Using Human Dermal Fibroblasts Derived from a Friedreich Ataxia Patient
Compounds described herein were tested for their ability to rescue Friedreich ataxia patient-derived dermal fibroblasts stressed by the addition of L-buthionine-(S,R)-sulfoximine (BSO).
A MEMα medium and a Medium 199 medium were obtained from Thermo Scientific, and fetal bovine serum was obtained from DS Pharma. Basic fibroblast growth factor (b-FGF) was purchased from Funakoshi Co., Ltd. and epidermal growth factor (EGF) was purchased from PeproTech Inc. L-Buthionine-(S,R)-sulfoximine and bovine pancreas-derived insulin were purchased from Sigma. Calcein-AM was purchased from DOJINDO. An assay medium is a medium of 64% MEMα medium and 25% Medium 199 medium, and contains 10% fetal bovine serum, EGF whose final concentration is 10 ng/ml, 10 ng/ml of bFGF, and 10 μg/mL insulin. Cells were purchased from Coriell Institute.
A test compound was dissolved in DMSO to make a 1 mM or 10 mM stock solution. From this stock solution, serially diluted solutions were further prepared using DMSO and used in an assay.
Friedreich ataxia patient-derived human dermal fibroblasts were suspended in an assay medium, seeded into a 384-well plate at 650 cells/well/20 μl, and incubated at 37° C. in a 5% carbon dioxide incubator overnight. A test compound solution prepared in an assay medium from the serially diluted solution (DMSO) at 5 times higher than the final concentration was added in 10 μL per well of the cell-seeded plate. Then, 10 μL of 150 μM BSO solution was added. The amount of a reaction solution was adjusted to be finally 50 μL, and the final BSO concentration was made at 30 μM. The plate was incubated at 37° C. in 5% CO2 for 48 hours, and then media were removed from all wells, and 20 μl of a Calcein-AM solution, which had been 550-fold diluted by PBS, was added to each well. The plate was incubated at 37° C. for 20 to 30 minutes, and then fluorescence (485 nm/525 nm of excitation/radiation wavelength) was measured by a fluorescence plate reader.
The degree of the viability of fibroblasts that were not treated with BSO was regarded as 100%, the degree of the viability of cells that were treated with BSO only (without a compound) was regarded as 0%, and the viability of cells that were treated with a compound was calculated.

Work on `CN(C)C1=NC2=C(c3ccc4c(c3)OCCN4C)C(=O)c3ccccc3C2=N1` [Example 77] yielded a pEC50 of 7.77.

`COCc1cccc(C2=C3N=C(N(C)C)N=C3c3ccccc3C2=O)c1` [Example 43] was tested, and the pEC50 was 7.70.

`Cc1cc(F)ccc1C1=C2N=C(N(C)C)N=C2c2ccccc2C1=O` [Example 21] gave a pEC50 of 8.10.

`CN(C)C1=NC2=C(c3ccccc3C#N)C(=O)c3ccccc3C2=N1` [Example 71, 2-[(2-dimethylamino)-5-oxo-5H-naphth[1,2-d]imidazol-4-yl]benzonitrile] gave a pEC50 of 7.82.

With `Cc1ccc(C2=C3N=C(N(C)C)N=C3c3ccccc3C2=O)c(C)c1` [Example 44] the pEC50 was 7.77.

With `CN(C)C1=NC2=C(c3ccc4cnn(C)c4c3)C(=O)c3ccccc3C2=N1` [Example 56] the pEC50 was 7.84.

In the case of `CC(=O)c1ccc(C2=C3N=C(N(C)C)N=C3c3ccccc3C2=O)c(C)c1` [Example 89], the pEC50 was 7.84.

Work on `Cc1ccncc1C1=C2N=C(N(C)C)N=C2c2ccccc2C1=O` [Example 32] yielded a pEC50 of 8.22.

`COc1ccc(C2=C3N=C(N(C)C)N=C3c3ccccc3C2=O)c(C(F)(F)F)c1` [Example 31] was tested, and the pEC50 was 7.82.

With `COc1ccc(F)c(C2=C3N=C(N(C)C)N=C3c3ccccc3C2=O)c1` [Example 90] the pEC50 was 7.85.

`CN(C)C1=NC2=C(c3ccccc3C(F)(F)F)C(=O)c3ccccc3C2=N1` [Example 20] was tested, and the pEC50 was greater than 8.52.

`CC(C)N1CCN(c2ccc(C3=C4N=C(N(C)C)N=C4c4ccccc4C3=O)cc2)CC1` [Example 74] gave a pEC50 greater than 8.52.

Molecule `CN(C)C1=NC2=C(c3ccc4c(c3)OCCCO4)C(=O)c3ccccc3C2=N1` [Example 79] has a pEC50 of 7.41.

`COc1cccc(C2=C3N=C(N(C)C)N=C3c3ccccc3C2=O)c1Cl` [Example 94] showed a pEC50 of 7.65.

In the case of `Cc1nn(C)c(C)c1C1=C2N=C(N(C)C)N=C2c2ccccc2C1=O` [Example 35], the pEC50 was 8.60.

`COc1ccc(C2=C3N=C(N(C)C)N=C3c3ccccc3C2=O)c(F)c1` [Example 8] showed a pEC50 of 8.00.

Work on `Cc1noc(C)c1C1=C2N=C(N(C)C)N=C2c2ccccc2C1=O` [Example 39] yielded a pEC50 of 8.21.

For `CN(C)C(=O)c1cccc(C2=C3N=C(N(C)C)N=C3c3ccccc3C2=O)c1` [Example 41], the pEC50 was 7.89.

`CN(C)C1=NC2=C(c3ccc(N(C)C)cc3)C(=O)c3ccccc3C2=N1` [Example 72] was tested, and the pEC50 was 7.00 to 7.70.

Molecule `Cc1ccc(C2=C3N=C(N(C)C)N=C3c3ccccc3C2=O)cc1` [Example 2] has a pEC50 of 7.77.

`COc1cccc(F)c1C1=C2N=C(N(C)C)N=C2c2ccccc2C1=O` [Example 12] gave a pEC50 of 8.19.

`COc1ccc(C)c(C2=C3N=C(N(C)C)N=C3c3ccccc3C2=O)c1` [Example 83] was tested, and the pEC50 was 7.74.

In the case of `Cc1cc(N2CCN(C)CC2)ccc1C1=C2N=C(N(C)C)N=C2c2ccccc2C1=O` [Example 62], the pEC50 was 8.26.

`Cc1c(C2=C3N=C(N(C)C)N=C3c3ccccc3C2=O)cnn1-c1ccccc1` [Example 76] was tested, and the pEC50 was 7.69.

Molecule `CN(C)C1=NC2=C(c3ccccc3N3CCCC3)C(=O)c3ccccc3C2=N1` [Example 13] has a pEC50 of 8.27.

In the case of `COc1ccc(C2=C3N=C(N(C)C)N=C3c3ccccc3C2=O)c(Cl)c1` [Example 82], the pEC50 was 7.78.

Work on `COc1ccc(C2=C3N=C(N(C)C)N=C3c3ccccc3C2=O)cn1` [Example 3] yielded a pEC50 greater than 7.70.

`COc1ccc(Cl)c(C2=C3N=C(N(C)C)N=C3c3ccccc3C2=O)c1` [Example 86] was tested, and the pEC50 was 7.83.

`Cc1noc(C)c1C1=C2N=C(N3CCOCC3)N=C2c2ccccc2C1=O` [Example 47] showed a pEC50 of 8.31.

Molecule `Cc1cc(OC(F)(F)F)ccc1C1=C2N=C(N(C)C)N=C2c2ccccc2C1=O` [Example 26] has a pEC50 of 8.14.

`Cc1cc(C#N)ccc1C1=C2N=C(N(C)C)N=C2c2ccccc2C1=O` [Example 36] showed a pEC50 of 8.02.

In the case of `Cc1ccccc1C1=C2N=C(N(C)C)N=C2c2ccccc2C1=O` [Example 4], the pEC50 was 8.43.

For `Cc1cnccc1C1=C2N=C(N(C)C)N=C2c2ccccc2C1=O` [Example 28], the pEC50 was 8.32.

`CN(C)C1=NC2=C(c3ccccc3N(C)C)C(=O)c3ccccc3C2=N1` [Example 17] gave a pEC50 of 8.07.

`CCN(CC)C1=NC2=C(c3cccc(OC)c3C)C(=O)c3ccccc3C2=N1` [Example 88] gave a pEC50 of 7.77.

Work on `CC(=O)Nc1cccc(C2=C3N=C(N(C)C)N=C3c3ccccc3C2=O)c1` [Example 59] yielded a pEC50 of 8.40.

`CN(C)C1=NC2=C(c3cccc4cccnc34)C(=O)c3ccccc3C2=N1` [Example 14] showed a pEC50 of 7.39.

In the case of `Cc1cccc(C2=C3N=C(N(C)C)N=C3c3ccccc3C2=O)c1` [Example 15], the pEC50 was 8.22.

Work on `CCN(CC)C(=O)c1ccccc1C1=C2N=C(N(CC)CC)N=C2c2ccccc2C1=O` [Example 68] yielded a pEC50 of 7.39.

`CN(C)C1=NC2=C(c3ccccc3Cl)C(=O)c3ccccc3C2=N1` [Example 33] was tested, and the pEC50 was 7.80.

For `CCN(CC)C1=NC2=C(c3cccc4cn[nH]c34)C(=O)c3ccccc3C2=N1` [Example 51], the pEC50 was 7.93.

In the case of `CN(C)C1=NC2=C(c3cnn(C)c3)C(=O)c3ccccc3C2=N1` [Example 38], the pEC50 was 7.73.

In the case of `CCN(CC)C1=NC2=C(c3c(C)noc3C)C(=O)c3ccccc3C2=N1` [Example 46], the pEC50 was 7.83.

For `CCOc1ccc(C2=C3N=C(N(C)C)N=C3c3ccccc3C2=O)c(C)c1` [Example 63], the pEC50 was 7.74.

In the case of `CN(C)C1=NC2=C(c3nn(C)c4ccccc34)C(=O)c3ccccc3C2=N1` [Example 42], the pEC50 was 8.29.

Work on `CN(C)C1=NC2=C(c3ccccc3F)C(=O)c3ccccc3C2=N1` [Example 5] yielded a pEC50 of 7.85.

`Cc1cc(C(F)(F)F)ccc1C1=C2N=C(N(C)C)N=C2c2ccccc2C1=O` [Example 23] gave a pEC50 of 8.23.

`COc1ccc(C2=C3N=C(N(C)C)N=C3c3ccccc3C2=O)c(C)c1` [Example 16] gave a pEC50 of 8.04.

Molecule `CN1CCN(c2ccc(C3=C4N=C(N(C)C)N=C4c4ccccc4C3=O)cc2)CC1` [Example 80] has a pEC50 of 8.00.

For `CN(C)C1=NC2=C(c3ccc(N4CCOCC4)cc3)C(=O)c3ccccc3C2=N1` [Example 40], the pEC50 was 7.94.

Molecule `COc1cccc(C2=C3N=C(N(C)C)N=C3c3ccccc3C2=O)c1F` [Example 92] has a pEC50 of 7.52.

`CN(C)C1=NC2=C(c3ccccc3N3CCNCC3)C(=O)c3ccccc3C2=N1` [Example 73] showed a pEC50 of 8.14.

Work on `CCN(CC)C1=NC2=C(c3cccc(OC)c3F)C(=O)c3ccccc3C2=N1` [Example 93] yielded a pEC50 of 7.54.

Molecule `COc1ccccc1C1=C2N=C(N(C)C)N=C2c2ccccc2C1=O` [Example 10] has a pEC50 of 8.29.

Work on `Cc1nn(C)cc1C1=C2N=C(N(C)C)N=C2c2ccccc2C1=O` [Example 75] yielded a pEC50 of 7.92.

`COc1ccc(C2=C3N=C(N(C)C)N=C3c3ccccc3C2=O)cc1` [Example 1, 2-(Dimethylamino)-4-(4-methoxyphenyl)-5H-naphth[1,2-d]imidazol-5-one] gave a pEC50 of 7.00 to 7.70.

For `CN(C)C1=NC2=C(c3ccccc3N3CCOCC3)C(=O)c3ccccc3C2=N1` [Example 11], the pEC50 was 8.19.

Molecule `Cc1nc(-c2ccccc2)sc1C1=C2N=C(N(C)C)N=C2c2ccccc2C1=O` [Example 78] has a pEC50 of less than 7.00.

Work on `Cc1ncccc1C1=C2N=C(N(C)C)N=C2c2ccccc2C1=O` [Example 34] yielded a pEC50 of 8.15.

`COc1cccc(C2=C3N=C(N(C)C)N=C3c3ccccc3C2=O)c1C` [Example 87] was tested, and the pEC50 was 7.77.

— US12281083B2, “2-substituted amino-naphth (1,2-d) imidazol-5-one compounds of pharmaceutically acceptable salts thereof” (PTC Therapeutics, Inc., priority 2016, dated 2025)
